Data reported in ChEMBL document CHEMBL1201862, “PubChem BioAssay data set” (2004).
Calls of active or inactive are those of the source.

Assays:
Bcl-2-like protein 10 = target: T1, Bcl-2-like protein 10 (Homo sapiens, UniProt Q9HD36); experiment: displacers of TR3 peptide from Bcl-B, primary screen, selectivity assay for Bfl-1 inhibitor project, biochemical, fluorescence polarization, FITC-TR3 peptide (AID 748);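 note: fluorescence polarization from a fluorescein-labelled TR3 peptide binding purified Bcl-B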
T1 sequence (Q9HD36 whole entry): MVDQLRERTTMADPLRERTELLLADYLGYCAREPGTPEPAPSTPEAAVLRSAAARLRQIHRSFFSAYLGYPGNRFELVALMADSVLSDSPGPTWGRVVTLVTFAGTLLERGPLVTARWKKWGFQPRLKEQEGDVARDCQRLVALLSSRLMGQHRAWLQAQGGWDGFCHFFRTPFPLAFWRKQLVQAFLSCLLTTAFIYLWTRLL

Hexokinase = target: T2, Hexokinase (Trypanosoma brucei, UniProt Q38C41); experiment: Confirmation assay for inhibitors of Trypanosoma brucei hexokinase 1-Analogue-first series. [Related pubchem assays (depositor defined):AID1430, AID1632, AID2516, AID2560, AID2579, AID2600, AID449725, AID492951]; assay type: functional
T2 sequence (Q38C41 whole entry): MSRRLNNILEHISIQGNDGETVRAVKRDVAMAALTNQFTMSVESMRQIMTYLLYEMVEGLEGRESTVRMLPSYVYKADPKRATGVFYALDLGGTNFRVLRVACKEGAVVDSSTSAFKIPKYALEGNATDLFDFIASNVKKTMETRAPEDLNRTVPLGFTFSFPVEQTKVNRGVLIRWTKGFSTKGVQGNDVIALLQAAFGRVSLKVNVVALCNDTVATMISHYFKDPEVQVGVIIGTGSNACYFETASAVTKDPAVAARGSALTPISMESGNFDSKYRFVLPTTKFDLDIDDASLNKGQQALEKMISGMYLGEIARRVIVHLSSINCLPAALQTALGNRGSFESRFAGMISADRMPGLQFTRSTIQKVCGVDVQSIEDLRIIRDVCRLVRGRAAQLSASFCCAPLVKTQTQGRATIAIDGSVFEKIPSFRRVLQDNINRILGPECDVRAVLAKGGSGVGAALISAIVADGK

SUMO-activating enzyme [1] = target: T3, SUMO-activating enzyme (Homo sapiens, UniProt Q9UBT2); experiment: SUMOylation inhibitor hit validation, confirmation, SUMOylation inhibitor project, biochemical, AlphaScreen (AID 2018); assay type: functional
T3 sequence (Q9UBE0 whole entry): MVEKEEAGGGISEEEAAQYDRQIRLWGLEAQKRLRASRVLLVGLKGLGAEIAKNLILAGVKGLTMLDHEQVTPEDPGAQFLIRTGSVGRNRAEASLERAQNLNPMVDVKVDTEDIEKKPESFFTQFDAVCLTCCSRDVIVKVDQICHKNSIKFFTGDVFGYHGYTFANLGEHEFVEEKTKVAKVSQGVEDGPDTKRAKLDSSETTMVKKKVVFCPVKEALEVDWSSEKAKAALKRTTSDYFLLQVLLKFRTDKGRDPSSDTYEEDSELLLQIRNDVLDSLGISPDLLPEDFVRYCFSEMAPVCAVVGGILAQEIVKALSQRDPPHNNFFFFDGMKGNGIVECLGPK
T3 sequence (Q9UBT2 whole entry): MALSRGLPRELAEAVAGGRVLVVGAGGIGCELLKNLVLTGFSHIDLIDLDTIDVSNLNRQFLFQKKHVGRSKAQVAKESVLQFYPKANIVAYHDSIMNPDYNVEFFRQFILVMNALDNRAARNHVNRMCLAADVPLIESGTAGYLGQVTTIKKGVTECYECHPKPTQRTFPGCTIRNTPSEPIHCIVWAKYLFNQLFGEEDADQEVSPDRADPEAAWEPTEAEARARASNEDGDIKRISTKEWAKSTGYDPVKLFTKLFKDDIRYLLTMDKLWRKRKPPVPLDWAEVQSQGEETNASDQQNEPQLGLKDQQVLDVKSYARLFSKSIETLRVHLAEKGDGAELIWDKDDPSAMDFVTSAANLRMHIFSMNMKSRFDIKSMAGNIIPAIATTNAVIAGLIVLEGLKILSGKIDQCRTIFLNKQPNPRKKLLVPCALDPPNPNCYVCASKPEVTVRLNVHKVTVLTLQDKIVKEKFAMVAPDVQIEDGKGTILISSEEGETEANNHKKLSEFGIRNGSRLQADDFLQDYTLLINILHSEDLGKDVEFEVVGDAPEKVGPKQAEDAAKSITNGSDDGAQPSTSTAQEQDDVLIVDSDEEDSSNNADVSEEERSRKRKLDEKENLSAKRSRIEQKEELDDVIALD

[2] = target: T4, Voltage-gated N-type calcium channel alpha-1B subunit/Amyloid beta A4 precursor protein-binding family A member 1 (Homo sapiens, UniProt Q00975+Q02410); assay type: protein assay
SUMO-activating enzyme [3] = target: T3, SUMO-activating enzyme; experiment: inhibitors of in vitro SUMOylation cascade, primary screen, biochemical, HTRF, uHTS (AID 2006); assay type: protein-complex assay
[4] = target: T4, Voltage-gated N-type calcium channel alpha-1B subunit/Amyloid beta A4 precursor protein-binding family A member 1; assay type: protein assay; remark: listed apart in the source
[5] = target: T5, E3 ubiquitin-protein ligase XIAP (Homo sapiens, UniProt P98170); experiment: Counter Screen using XIAP-Bir3 for Chemical Antagonists of Bir1/2 domains of IAP-family anti-apoptotic proteins. [Related pubchem assays (depositor defined):AID1018, AID1449, AID1514, AID1638, AID1749, AID1750, AID488957, AID488963]
T5 sequence (P98170 whole entry): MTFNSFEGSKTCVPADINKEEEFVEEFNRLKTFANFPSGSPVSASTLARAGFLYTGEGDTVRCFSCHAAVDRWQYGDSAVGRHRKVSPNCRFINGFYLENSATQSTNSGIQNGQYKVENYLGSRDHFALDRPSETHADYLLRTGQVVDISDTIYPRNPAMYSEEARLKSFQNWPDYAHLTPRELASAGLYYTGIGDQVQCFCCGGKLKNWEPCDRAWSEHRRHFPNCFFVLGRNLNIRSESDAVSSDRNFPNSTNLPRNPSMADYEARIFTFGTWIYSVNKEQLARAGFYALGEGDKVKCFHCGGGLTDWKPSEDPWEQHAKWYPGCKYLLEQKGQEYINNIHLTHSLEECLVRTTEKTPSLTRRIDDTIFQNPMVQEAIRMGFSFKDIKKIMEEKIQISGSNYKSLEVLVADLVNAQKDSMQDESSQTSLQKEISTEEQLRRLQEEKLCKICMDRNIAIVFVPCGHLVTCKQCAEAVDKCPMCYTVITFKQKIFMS

[6] = target: T5, E3 ubiquitin-protein ligase XIAP; experiment: XIAP antagonists, biochemical, IAP family, fluorescence polarization (AID 1018); assay type: functional
Cytochrome P450 3A4 = Cytochrome P450 3A4 (Homo sapiens, UniProt P08684); details: Potency;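 note: confirmatory qHTS run detecting inhibitors and substrates of CYP3A4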
Sequence of Cytochrome P450 3A4 (P08684 whole entry): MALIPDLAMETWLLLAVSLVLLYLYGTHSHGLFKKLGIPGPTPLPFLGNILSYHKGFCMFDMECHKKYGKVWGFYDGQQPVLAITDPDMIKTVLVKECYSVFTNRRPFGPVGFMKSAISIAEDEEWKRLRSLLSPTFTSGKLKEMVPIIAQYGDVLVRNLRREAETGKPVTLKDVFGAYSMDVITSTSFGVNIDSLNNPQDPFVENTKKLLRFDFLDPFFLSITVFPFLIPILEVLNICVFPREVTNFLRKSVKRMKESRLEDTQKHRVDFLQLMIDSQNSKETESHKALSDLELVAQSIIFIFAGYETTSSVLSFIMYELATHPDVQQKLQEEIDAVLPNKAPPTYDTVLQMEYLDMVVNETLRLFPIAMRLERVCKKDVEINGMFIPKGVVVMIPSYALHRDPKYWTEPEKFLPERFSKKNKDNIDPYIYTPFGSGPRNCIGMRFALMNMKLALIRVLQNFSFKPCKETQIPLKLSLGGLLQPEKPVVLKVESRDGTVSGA

[7] = A cytotoxicity screen of small molecule inhibitors of the PhoP region in Salmonella typhi identified in the primary screen. [Related pubchem assays: 1850, 1864, 1985 ]; assay type: functional
[8] = target: T6, Heat shock factor protein 1 (Mus musculus, UniProt P38532); experiment: inhibition of MG132-induced HSE-luciferase signal, confirmation, cell-based, NIH3T3, luminescence, dose retest (AID 2382); assay type: functional;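 note: NIH3T3 fibroblasts with HSF1-driven luciferase reporter stressed by proteasome inhibitor MG132; luminescence from HSF1-driven luciferase expression after 8 hours of MG132 stress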
T6 sequence (P38532 whole entry): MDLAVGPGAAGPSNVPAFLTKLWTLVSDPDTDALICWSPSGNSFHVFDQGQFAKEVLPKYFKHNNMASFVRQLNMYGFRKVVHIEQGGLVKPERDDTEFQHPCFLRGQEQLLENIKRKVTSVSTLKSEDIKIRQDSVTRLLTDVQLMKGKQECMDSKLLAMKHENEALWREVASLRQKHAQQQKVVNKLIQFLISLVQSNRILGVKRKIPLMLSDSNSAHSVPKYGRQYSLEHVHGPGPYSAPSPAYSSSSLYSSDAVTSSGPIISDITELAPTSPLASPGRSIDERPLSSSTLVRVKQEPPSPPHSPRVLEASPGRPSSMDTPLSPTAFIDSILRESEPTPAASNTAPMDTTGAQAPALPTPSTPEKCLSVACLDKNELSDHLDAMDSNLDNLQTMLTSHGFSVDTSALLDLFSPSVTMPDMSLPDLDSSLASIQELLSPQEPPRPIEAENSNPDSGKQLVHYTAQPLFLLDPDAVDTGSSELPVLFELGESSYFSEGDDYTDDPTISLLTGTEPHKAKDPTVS

[9] = target: T7, Acyl-homoserine lactone acylase PvdQ (Pseudomonas aeruginosa (strain LESB58), UniProt Q9I194); experiment: P. aeruginosa PvdQ acylase inhibitors, dose response, biochemical, fluorescence, plate reader and imaging, cherry-picks (AID 493231)
T7 sequence (Q9I194 whole entry): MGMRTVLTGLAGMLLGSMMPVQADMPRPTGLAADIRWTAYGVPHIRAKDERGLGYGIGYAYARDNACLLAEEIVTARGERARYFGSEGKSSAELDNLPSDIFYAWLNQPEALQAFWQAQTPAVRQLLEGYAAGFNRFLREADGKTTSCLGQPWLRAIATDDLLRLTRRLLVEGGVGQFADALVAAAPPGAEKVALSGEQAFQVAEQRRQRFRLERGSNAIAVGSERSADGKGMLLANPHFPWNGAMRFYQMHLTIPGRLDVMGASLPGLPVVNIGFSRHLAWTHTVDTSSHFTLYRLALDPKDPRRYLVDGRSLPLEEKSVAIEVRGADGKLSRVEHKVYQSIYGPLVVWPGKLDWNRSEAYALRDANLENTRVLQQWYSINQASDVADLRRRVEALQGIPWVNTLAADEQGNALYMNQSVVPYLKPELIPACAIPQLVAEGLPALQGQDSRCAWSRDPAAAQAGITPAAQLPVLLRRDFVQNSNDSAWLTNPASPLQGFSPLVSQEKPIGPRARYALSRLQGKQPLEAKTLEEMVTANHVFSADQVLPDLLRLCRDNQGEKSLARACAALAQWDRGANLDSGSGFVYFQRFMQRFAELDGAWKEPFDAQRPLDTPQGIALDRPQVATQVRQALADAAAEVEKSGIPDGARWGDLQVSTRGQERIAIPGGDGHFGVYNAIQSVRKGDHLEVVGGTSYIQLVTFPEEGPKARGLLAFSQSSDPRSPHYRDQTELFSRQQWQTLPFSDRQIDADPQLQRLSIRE

Nonstructural protein 1 = Nonstructural protein 1 (Influenza A virus, UniProt Q194T2); assay type: functional, Influenza A virus (A/California/07/2009(H1N1))
Sequence of Nonstructural protein 1 (Q194T2 whole entry): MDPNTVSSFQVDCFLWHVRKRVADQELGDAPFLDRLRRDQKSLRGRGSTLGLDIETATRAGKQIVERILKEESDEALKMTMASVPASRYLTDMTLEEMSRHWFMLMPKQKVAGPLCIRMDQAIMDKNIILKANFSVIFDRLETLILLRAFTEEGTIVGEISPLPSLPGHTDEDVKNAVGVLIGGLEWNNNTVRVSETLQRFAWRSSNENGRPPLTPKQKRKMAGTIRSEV

[10] = cytotoxicity in HEK-293T cells, dose response, cytotoxicity control for BCR NF-kB inhibitor project, luminescence, B-cell screen hits (AID 489021); assay type: functional, cell-based;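 note: HEK-293T cells carrying an NF-kB luciferase reporter; cells exposed to compound for about 14 hours before viability readout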
HEK293 = experiment: inhibitors of LMP1-driven NF-kB reporter, dose response, cell-based, HEK293, luciferase, cherry-pick (AID 588343); assay type: functional; details: Homo sapiens
[11] = target: DNA dC->dU-editing enzyme APOBEC-3A (Homo sapiens, UniProt P31941); experiment: APOBEC3A DNA deaminase inhibitors, dose response, biochemical (AID 504722); assay type: functional
Sequence of DNA dC->dU-editing enzyme APOBEC-3A (P31941 whole entry): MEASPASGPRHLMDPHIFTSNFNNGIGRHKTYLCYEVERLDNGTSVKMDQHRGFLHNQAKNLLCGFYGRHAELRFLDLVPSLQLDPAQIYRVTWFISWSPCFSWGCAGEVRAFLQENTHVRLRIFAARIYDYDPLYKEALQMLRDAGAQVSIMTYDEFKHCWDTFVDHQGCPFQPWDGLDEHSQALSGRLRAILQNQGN

[12] = target: DNA dC->dU-editing enzyme APOBEC-3G (Homo sapiens, UniProt Q9HC16); experiment: Dose Response confirmation of small molecule APOBEC3G DNA Deaminase Inhibitors via a fluorescence-based single-stranded DNA deaminase assay. [Related pubchem assays (depositor defined):AID493012, AID493028]; assay type: functional
Sequence of DNA dC->dU-editing enzyme APOBEC-3G (Q9HC16 whole entry): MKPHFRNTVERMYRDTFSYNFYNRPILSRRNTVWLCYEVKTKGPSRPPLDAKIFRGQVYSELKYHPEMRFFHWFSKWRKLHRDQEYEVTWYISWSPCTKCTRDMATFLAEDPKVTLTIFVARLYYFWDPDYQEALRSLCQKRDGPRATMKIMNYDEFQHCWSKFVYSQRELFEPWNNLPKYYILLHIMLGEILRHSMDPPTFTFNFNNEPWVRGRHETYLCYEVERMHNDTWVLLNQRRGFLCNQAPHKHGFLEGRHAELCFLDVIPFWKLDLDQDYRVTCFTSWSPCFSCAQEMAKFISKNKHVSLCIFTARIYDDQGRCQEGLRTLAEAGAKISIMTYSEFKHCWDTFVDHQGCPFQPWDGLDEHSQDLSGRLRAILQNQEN

[13] = inhibitors of intracellular T. cruzi replication, confirmation, NIH3T3 host cells, beta-gal luminescence (AID 2044); assay type: functional, cell-based;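 note: intracellular parasites grown in NIH/3T3 mouse fibroblasts as host cells; luminescent beta-galactosidase reporter signal from transgenic T. cruzi replicating inside host cells; inhibitors lower the luminescence signal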
[14] = cytotoxicity toward NIH3T3 fibroblasts, dose response, counter-screen, cell-based, ATP luminescence, mouse fibroblasts (AID 2010); assay type: functional;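 note: cells exposed to compound for about 90 hours before reading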
[15] = target: Induced myeloid leukemia cell differentiation protein Mcl-1 (Homo sapiens, UniProt Q07820); assay type: functional
[16] = target: Glyceraldehyde-3-phosphate dehydrogenase (Homo sapiens, UniProt P04406)
Sequence of Glyceraldehyde-3-phosphate dehydrogenase (P04406 whole entry): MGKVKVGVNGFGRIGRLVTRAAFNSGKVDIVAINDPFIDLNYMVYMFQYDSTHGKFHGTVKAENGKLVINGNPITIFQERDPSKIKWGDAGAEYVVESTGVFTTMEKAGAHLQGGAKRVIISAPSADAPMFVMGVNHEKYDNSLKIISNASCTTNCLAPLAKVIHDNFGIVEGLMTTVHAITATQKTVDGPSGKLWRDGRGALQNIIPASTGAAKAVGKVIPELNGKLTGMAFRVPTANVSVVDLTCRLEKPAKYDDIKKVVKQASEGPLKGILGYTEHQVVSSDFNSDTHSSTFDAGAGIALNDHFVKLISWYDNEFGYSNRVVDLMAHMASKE

[17] = target: FAD-linked sulfhydryl oxidase ALR (Homo sapiens, UniProt P55789); experiment: inhibitors of human ALR sulfhydryl oxidase, dose response, biochemical, H2O2 detection, luminescence, cherry-pick (AID 493248)
Sequence of FAD-linked sulfhydryl oxidase ALR (P55789 whole entry): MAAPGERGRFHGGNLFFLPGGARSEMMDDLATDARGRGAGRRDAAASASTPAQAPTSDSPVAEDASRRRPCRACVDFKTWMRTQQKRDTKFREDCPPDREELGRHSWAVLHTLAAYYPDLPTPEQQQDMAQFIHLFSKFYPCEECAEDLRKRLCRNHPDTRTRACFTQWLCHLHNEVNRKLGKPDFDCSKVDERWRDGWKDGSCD

Genome polyprotein = Genome polyprotein (dengue virus type 2, UniProt P29990); experiment: Dengue-2 NS5 methyltransferase inhibitors, primary screen, biochemical, confirmation dose response (AID 588689); assay type: functional
[18] = growth suppression of PTEN-null colon cells, dose response, cell-based, HCT116 PTEN knockout (AID 1047); assay type: functional;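 note: HCT116 colon tumor cells with PTEN knocked out; cells exposed to compound for 60 hours before readout; potency for loss of cell viability measured by luminescence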
[19] = growth suppression of beta-catenin-knockout colon cells, dose response, cell-based, HCT116, human colon tumor (AID 1045); assay type: functional;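 note: HCT116 colon tumor cells with beta catenin knocked out; cells exposed to compound for 60 hours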
Beta-galactosidase = Beta-galactosidase (Escherichia coli, UniProt Q8VNN2); experiment: beta-galactosidase enzyme inhibitors and activators, dose response, artefact control for CCR6 antagonist project, biochemical, E. coli enzyme, set 3 (AID 504712); assay type: functional
Sequence of Beta-galactosidase (Q8VNN2 whole entry): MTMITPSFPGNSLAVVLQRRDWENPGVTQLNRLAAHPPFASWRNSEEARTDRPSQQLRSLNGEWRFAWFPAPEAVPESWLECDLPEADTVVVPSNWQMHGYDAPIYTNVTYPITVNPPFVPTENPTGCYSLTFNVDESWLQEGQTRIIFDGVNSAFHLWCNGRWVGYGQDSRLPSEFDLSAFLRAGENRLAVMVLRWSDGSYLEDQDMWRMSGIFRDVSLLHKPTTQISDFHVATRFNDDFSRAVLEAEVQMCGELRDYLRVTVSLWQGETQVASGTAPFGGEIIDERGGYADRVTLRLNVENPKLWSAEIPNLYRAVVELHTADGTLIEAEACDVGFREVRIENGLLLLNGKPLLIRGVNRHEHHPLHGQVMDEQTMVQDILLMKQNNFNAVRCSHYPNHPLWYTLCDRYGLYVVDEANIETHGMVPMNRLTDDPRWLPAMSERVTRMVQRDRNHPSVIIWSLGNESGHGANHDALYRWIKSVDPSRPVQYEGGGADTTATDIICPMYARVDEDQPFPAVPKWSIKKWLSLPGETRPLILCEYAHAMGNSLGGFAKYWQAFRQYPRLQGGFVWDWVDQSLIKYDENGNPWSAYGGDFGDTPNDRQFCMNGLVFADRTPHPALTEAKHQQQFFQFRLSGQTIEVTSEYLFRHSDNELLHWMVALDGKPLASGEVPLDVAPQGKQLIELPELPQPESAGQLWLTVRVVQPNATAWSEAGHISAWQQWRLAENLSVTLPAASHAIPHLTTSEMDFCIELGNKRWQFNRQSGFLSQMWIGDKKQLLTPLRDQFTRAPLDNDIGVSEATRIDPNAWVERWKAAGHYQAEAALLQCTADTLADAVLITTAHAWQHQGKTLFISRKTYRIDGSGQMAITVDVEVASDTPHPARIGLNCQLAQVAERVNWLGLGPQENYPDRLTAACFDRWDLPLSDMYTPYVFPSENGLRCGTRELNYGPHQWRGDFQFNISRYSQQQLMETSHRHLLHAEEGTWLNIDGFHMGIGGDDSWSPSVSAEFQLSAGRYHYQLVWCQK

Cytochrome P450 2C9 = Cytochrome P450 2C9 (Homo sapiens, UniProt P11712)
[20] = target: Glucose-6-phosphate 1-dehydrogenase (Homo sapiens, UniProt P11413); experiment: human G6PD enzyme inhibitors, dose response, selectivity assay for P. falciparum G6PD inhibitor project, biochemical, fluorescence (AID 504792); assay type: functional
Sequence of Glucose-6-phosphate 1-dehydrogenase (P11413 whole entry): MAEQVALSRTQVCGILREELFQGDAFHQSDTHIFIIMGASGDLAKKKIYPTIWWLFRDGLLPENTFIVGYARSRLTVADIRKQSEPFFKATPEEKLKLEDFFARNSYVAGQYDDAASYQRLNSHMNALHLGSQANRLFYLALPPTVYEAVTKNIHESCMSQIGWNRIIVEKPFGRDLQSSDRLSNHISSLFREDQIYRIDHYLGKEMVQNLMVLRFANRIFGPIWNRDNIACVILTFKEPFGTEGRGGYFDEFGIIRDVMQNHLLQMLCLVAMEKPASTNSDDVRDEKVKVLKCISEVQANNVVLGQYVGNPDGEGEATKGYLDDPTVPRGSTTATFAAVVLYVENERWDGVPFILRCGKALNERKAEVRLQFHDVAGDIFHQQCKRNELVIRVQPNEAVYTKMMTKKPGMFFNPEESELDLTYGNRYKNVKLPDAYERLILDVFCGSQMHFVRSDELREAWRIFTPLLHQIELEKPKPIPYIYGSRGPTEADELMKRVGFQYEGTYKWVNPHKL

[21] = target: Heat shock protein HSP 90-alpha (Homo sapiens, UniProt P07900); assay type: functional, organism-based

Compound: COc1ccc(C2C=C(c3ccc(Br)cc3)Nc3nc(NS(C)(=O)=O)nn32)cc1 (stereo not given)
- IC50 (Bcl-2-like protein 10): > 1.56 µM (inactive)

Compound: CC(C)(C)c1ccc(C(=O)Nc2cc(Cl)c(F)cc2C(=O)O)cc1
- IC50 (Hexokinase): 2.79 µM (active)

Compound: CCOc1ccc(NC(=O)c2ccc(NC(=O)c3ccc(CN4CCOCC4)cc3)cc2)cc1
- IC50 (SUMO-activating enzyme [1]): 22.4 µM (active)
- IC50 [2]: 10.1 µM (active)
- IC50 (SUMO-activating enzyme [3]): 25.1 µM (active)
- IC50 [4]: > 50 µM (inactive)

Compound: COc1ccc(C(N)=NOC(=O)Cc2ccc(C)cc2)cc1
- IC50 [5]: > 100 µM (inactive)
- IC50 [6]: > 100 µM (not active)

Compound: O=S1OCC2C(CO1)C1(Cl)C(Cl)=C(Cl)C2(Cl)C1(Cl)Cl (stereo not given) [ENDOSULFAN]
- AC50 (Cytochrome P450 3A4): 2.51 µM (inconclusive)

Compound: O=[N+]([O-])c1ccc2oc(C3CCCCC3)nc2c1
- EC50 [7]: > 50 µM (active)

Compound: CSC1=N/C(=C\C=C\c2cccs2)C(=O)S1
- EC50 [8]: 0.853 µM (active)
- AC50 [9]: 3.5 µM (active)
- IC50 (Nonstructural protein 1): 69.4 µM (active)

Compound: CCOC(=O)/C=C(\C)Sc1cc(=O)oc2ccccc12
- AC50 [9]: 8.71 µM (active)
- IC50 [10]: > 80 µM (inactive)
- AC50 (HEK293): 12 µM (active)

Compound: Cc1ccc(/C=N/n2c(S)nnc2-c2ccco2)s1
- IC50 [11]: > 100 µM (inactive)
- IC50 [12]: 1.55 µM (active)

Compound: Cc1ccsc1-c1nnc(S)n1CC(C)C
- IC50 [11]: > 100 µM (inactive)
- IC50 [12]: 5.9 µM (active)

Compound: Cc1cccc(-c2nc(Nc3ccc(N4CCOCC4)cc3)c3ccccc3n2)c1
- EC50 [13]: 1.23 µM (active)
- EC50 [14]: > 60 µM (not active)
- IC50 [15]: > 54 µM (active)

Compound: COc1cccc(N2CCN(C3=C(Cl)C(=O)N(c4cccc(OC)c4)C3=O)CC2)c1
- IC50 [16]: > 50 µM (inconclusive)

Compound: Cc1cccc(N/N=C/c2ccc(O)c(O)c2O)c1
- EC50 [7]: > 50 µM (active)
- AC50 [17]: 1.36 µM (active)
- IC50 (Genome polyprotein): 32.6 µM (active)

Compound: S=C(Nc1ccccc1)c1ccccn1
- EC50 [18]: 32.5 µM (active)
- EC50 [19]: 32.8 µM (active)
- IC50 (Beta-galactosidase): > 66.6 µM (inactive)

Compound: O=C(Cn1sc2ccccc2c1=O)Nc1ccccc1Br
- IC50 (Hexokinase): 4.66 µM (active)

Compound: O=c1ccsn1-c1ccccc1
- IC50 (Hexokinase): 13.5 µM (active)

Compound: CCCn1c(C)nc2c(NC3CCCCC3)nc(C)nc21
- AC50 (Cytochrome P450 3A4): 12.6 µM (inconclusive)

Compound: c1ccc2cc(-c3csnn3)ccc2c1
- AC50 [9]: 75.6 µM (active)
- AC50 (Cytochrome P450 2C9): 14.1 µM (inconclusive)

Compound: COC(=O)[C@@H]1C[C@@H]2CC[C@@H](O)C[C@@H]2N1Cc1ccc(N2CCN(C)CC2)cc1
- AC50 (Cytochrome P450 3A4): 10 µM (inconclusive)

Compound: COc1ccc(S(=O)(=O)Nc2cc(Cl)ccc2C(=O)O)cc1
- IC50 (Hexokinase): > 25 µM (inactive)

Compound: c1ccc(C2[C@H]3CN(CC4CCCCC4)[C@H](c4ccccc4)C34CC2(c2ccccc2)C4)cc1 (stereo not given in full)
- AC50 (Cytochrome P450 3A4): 5.01 µM (inconclusive)

Compound: Oc1ccc(-c2nc3ncccn3c2Nc2ccc3c(c2)OCCO3)cc1
- EC50 [7]: > 50 µM (active)

Compound: Cc1cc(Cl)ccc1OCC(=O)Nc1ccccc1CO
- IC50 [5]: > 100 µM (inactive)
- IC50 [6]: > 100 µM (not active)

Compound: O=C1C=CC(=O)N1c1ccc(N2CCCCC2)cc1
- IC50 [2]: 9.34 µM (active)
- IC50 [4]: 3.07 µM (active)
- IC50 [11]: > 100 µM (inactive)
- IC50 [20]: > 80 µM (inactive)
- IC50 (Beta-galactosidase): > 66.6 µM (inactive)
- IC50 [12]: 7.13 µM (active)
- AC50 [21]: 0.554 µM (active)

Compound: N=c1c(S(=O)(=O)c2ccc(Br)cc2)cc2c(=O)n3ccccc3nc2n1Cc1ccco1
- IC50 (SUMO-activating enzyme [1]): 3.92 µM (active)
- IC50 (SUMO-activating enzyme [3]): 4.16 µM (active)
